The results in this text go back to ChEMBL document CHEMBL3045833, “Synthesis and antifungal activity of novel 7-O-substituted pyridyl-4-methyl coumarin derivatives” (2013).

What all share (type): functional
Assay [1] deals with Cryptococcus neoformans. Description: Antifungal activity against Cryptococcus neoformans assessed as growth inhibition after 72 hr by NCCLS microbroth dilution method. On the technique in general: Dilution methods test growth across graded concentrations, often in twofold steps.
Assay [2] deals with Candida tropicalis. Description: Antifungal activity against Candida tropicalis assessed as growth inhibition by NCCLS microbroth dilution method.
In assay [3] the test system is Kluyveromyces marxianus. Put plainly: Antifungal activity against Kluyveromyces marxianus assessed as growth inhibition by NCCLS microbroth dilution method.
The test system of assay [4] is Aspergillus fumigatus. Put plainly: Antifungal activity against Aspergillus fumigatus assessed as growth inhibition by NCCLS microbroth dilution method.
For assay [5], the system named is Candida albicans. Put plainly: Antifungal activity against Candida albicans Y0109 assessed as growth inhibition after 24 hr by NCCLS microbroth dilution method. The note with it: Y0109, 24 h.
In assay [6] the test system is Candida albicans. Put plainly: Antifungal activity against Candida albicans SC5314 assessed as growth inhibition after 24 hr by NCCLS microbroth dilution method. The note with it: SC5314, 24 h.
In assay [7] the test system is Trichophyton rubrum. Description: Antifungal activity against Trichophyton rubrum assessed as growth inhibition by NCCLS microbroth dilution method.
Assay [8] has as its system Candida parapsilosis. Put plainly: Antifungal activity against Candida parapsilosis assessed as growth inhibition by NCCLS microbroth dilution method. As to conditions: Lodderomyces parapsilosis.

Molecules are shown by their SMILES. ≈ marks a conversion by molar mass, not a printed value.

A word on the MIC80: it is the lowest concentration that inhibits either 80% of growth or 80% of the strains tested, depending on the study. For the molecule `Cc1cc(=O)oc2cc(Oc3ccc(NC(=O)Cc4ccccc4)cn3)ccc12`, the MIC80 in assay [1], in assay [2], in assay [3], in assay [4], in assay [5] and in assay [6] was above 64 µg/mL in each case. The MIC80 in assay [7] and in assay [8] was above 64 µg/mL throughout.

With `Cc1cc(=O)oc2cc(Oc3ccc(NC(=O)c4ccccc4)cn3)ccc12`, the MIC80 in assay [1] was 16 µg/mL (≈ 43 µM); in assay [2] it was 16 µg/mL; in assay [3], 32 µg/mL; in assay [4] it was above 64 µg/mL; in assay [5], 4 µg/mL (≈ 10.7 µM); in assay [6], 16 µg/mL (≈ 43 µM). For the same molecule, the MIC80 came out at 8 µg/mL in assay [7] and 1 µg/mL in assay [8].

As for `Cc1cc(=O)oc2cc(Oc3ccc(NC(=O)c4cnccn4)cn3)ccc12`, the MIC80 in assay [1] is 1 µg/mL (≈ 2.67 µM); in assay [2] it was 1 µg/mL; in assay [3] it was 16 µg/mL; in assay [4], above 64 µg/mL; in assay [5], 4 µg/mL (≈ 10.7 µM); in assay [6], 4 µg/mL (≈ 10.7 µM). Also, the MIC80 turned out to be 0.25 µg/mL in assay [7] and 32 µg/mL in assay [8].

On to `Cc1cc(=O)oc2cc(Oc3ccc(NC(=O)CN(C)C)cn3)ccc12`, for which the MIC80 in assay [1] was 16 µg/mL (≈ 45.3 µM); in assay [2] it was 1 µg/mL; in assay [3], 32 µg/mL; in assay [4], above 64 µg/mL; in assay [5] it was 16 µg/mL (≈ 45.3 µM); in assay [6], 32 µg/mL (≈ 90.6 µM). In addition, the results for the MIC80 in assay [7] and in assay [8] were 16 µg/mL and 32 µg/mL, respectively.

For the molecule `Cc1cc(=O)oc2cc(Oc3ccc(NC(=O)c4ccccn4)cn3)ccc12`, the MIC80 was 32 µg/mL (≈ 85.7 µM) in assay [1]; 16 µg/mL in assay [2]; 16 µg/mL in assay [3]; above 64 µg/mL in assay [4]; 16 µg/mL (≈ 42.9 µM) in assay [5]; 16 µg/mL (≈ 42.9 µM) in assay [6]. In addition, the MIC80 in assay [7] was 16 µg/mL; in assay [8] it was 32 µg/mL.

In the case of `Cc1cc(=O)oc2cc(Oc3ccc(NC(=O)c4cccs4)cn3)ccc12`, the MIC80 is 32 µg/mL (≈ 84.6 µM) in assay [1]; 16 µg/mL in assay [2]; 32 µg/mL in assay [3]; above 64 µg/mL in assay [4]; 16 µg/mL (≈ 42.3 µM) in assay [5]; 32 µg/mL (≈ 84.6 µM) in assay [6]. The MIC80 in assay [7] was 16 µg/mL; in assay [8], 32 µg/mL.

For `Cc1cc(=O)oc2cc(Oc3ccc([N+](=O)[O-])cn3)ccc12`, the MIC80 was 64 µg/mL (≈ 215 µM) in assay [1]; above 64 µg/mL in assay [2]; above 64 µg/mL in assay [3]; above 64 µg/mL in assay [4]; 64 µg/mL (≈ 215 µM) in assay [5]; above 64 µg/mL in assay [6]. Further, the MIC80 is 64 µg/mL in assay [7] and 32 µg/mL in assay [8].

On to `Cc1cnc(C(=O)Nc2ccc(Oc3ccc4c(C)cc(=O)oc4c3)nc2)cn1`, for which the MIC80 is 4 µg/mL (≈ 10.3 µM) in assay [1]; 1 µg/mL in assay [2]; 4 µg/mL in assay [3]; above 64 µg/mL in assay [4]; 16 µg/mL (≈ 41.2 µM) in assay [5]; 16 µg/mL (≈ 41.2 µM) in assay [6]. Also, the MIC80 in assay [7] was 16 µg/mL; in assay [8] it was above 64 µg/mL.

As for `Cc1cc(=O)oc2cc(Oc3ccc(NC(=O)CC#N)cn3)ccc12`, the MIC80 in assay [1] is 16 µg/mL (≈ 47.7 µM); in assay [2] it was above 64 µg/mL; in assay [3] it was 16 µg/mL; in assay [4] it was above 64 µg/mL; in assay [5], 16 µg/mL (≈ 47.7 µM); in assay [6], 0.25 µg/mL (≈ 0.746 µM). The figures for the MIC80 in assay [7] and in assay [8] were 0.25 µg/mL and 4 µg/mL, respectively.

As for `Cc1cc(=O)oc2cc(O)ccc12` [HYMECROMONE], the MIC80 in assay [1], in assay [2], in assay [3], in assay [4], in assay [5] and in assay [6] was above 64 µg/mL throughout. In addition, the MIC80 in assay [7] and in assay [8] was 32 µg/mL throughout.

`Cc1cc(=O)oc2cc(Oc3ccc(NC(=O)C4CC4)cn3)ccc12`: the MIC80 in assay [1] was 32 µg/mL (≈ 95.1 µM); in assay [2] it was 16 µg/mL; in assay [3], 32 µg/mL; in assay [4], above 64 µg/mL; in assay [5], above 64 µg/mL; in assay [6], 16 µg/mL (≈ 47.6 µM). In addition, the MIC80 in assay [7] and in assay [8] was 8 µg/mL throughout.

`Cc1cc(=O)oc2cc(Oc3ccc(NC(=O)c4ccco4)cn3)ccc12`: the MIC80 in assay [1] was above 64 µg/mL; in assay [2] it was 8 µg/mL; in assay [3] it was 16 µg/mL; in assay [4], above 64 µg/mL; in assay [5] it was 16 µg/mL (≈ 44.2 µM); in assay [6] it was 32 µg/mL (≈ 88.3 µM). For the same molecule, the MIC80 in assay [7] was 16 µg/mL; in assay [8], above 64 µg/mL.

As to `Cc1cc(=O)oc2cc(Oc3ccc(NC(=O)Cc4c[nH]c5ccccc45)cn3)ccc12`, the MIC80 was 8 µg/mL (≈ 18.8 µM) in assay [1]; above 64 µg/mL in assay [2]; above 64 µg/mL in assay [3]; above 64 µg/mL in assay [4]; 64 µg/mL (≈ 150 µM) in assay [5]; above 64 µg/mL in assay [6]. In addition, the MIC80 in assay [7] is 16 µg/mL; in assay [8], above 64 µg/mL.

For `CC(=O)Nc1ccc(Oc2ccc3c(C)cc(=O)oc3c2)nc1`, the MIC80 in assay [1] was 8 µg/mL (≈ 25.8 µM); in assay [2], 8 µg/mL; in assay [3], 16 µg/mL; in assay [4], above 64 µg/mL; in assay [5] it was 1 µg/mL (≈ 3.22 µM); in assay [6] it was 0.25 µg/mL (≈ 0.806 µM). Moreover, the MIC80 stood at 16 µg/mL in assay [7] and 1 µg/mL in assay [8].

On to `Cc1cc(=O)oc2cc(Oc3ccc(NC(=O)C4CCCCC4)cn3)ccc12`, for which the MIC80 in assay [1] was 32 µg/mL (≈ 84.6 µM); in assay [2], above 64 µg/mL; in assay [3], above 64 µg/mL; in assay [4], above 64 µg/mL; in assay [5], above 64 µg/mL; in assay [6] it was above 64 µg/mL. Moreover, the MIC80 amounted to 8 µg/mL in assay [7] and 4 µg/mL in assay [8].

For the molecule `Cc1cc(=O)oc2cc(Oc3ccc(NC(=O)c4ccncc4)cn3)ccc12`, the MIC80 in assay [1] was 32 µg/mL (≈ 85.7 µM); in assay [2], 16 µg/mL; in assay [3] it was 8 µg/mL; in assay [4], above 64 µg/mL; in assay [5], 16 µg/mL (≈ 42.9 µM); in assay [6], 16 µg/mL (≈ 42.9 µM). In addition, the MIC80 in assay [7] turned out to be 32 µg/mL; in assay [8] it was 0.25 µg/mL.

For `Cc1cc(=O)oc2cc(Oc3ccc(NC(=O)/C=C/c4ccccc4)cn3)ccc12`, the MIC80 in assay [1] was above 64 µg/mL; in assay [2], above 64 µg/mL; in assay [3], 16 µg/mL; in assay [4] it was above 64 µg/mL; in assay [5], above 64 µg/mL; in assay [6], above 64 µg/mL. The MIC80 in assay [7] is 4 µg/mL; in assay [8], above 64 µg/mL.

As to `C[C@@H]1[C@H](O)[C@@H](C)/C=C/C=C/C=C/C=C/C=C/C=C/C=C/[C@H](O[C@@H]2O[C@H](C)[C@@H](O)[C@H](N)[C@@H]2O)C[C@@H]2O[C@](O)(C[C@@H](O)C[C@@H](O)[C@H](O)CC[C@@H](O)C[C@@H](O)CC(=O)O[C@H]1C)C[C@H](O)[C@H]2C(=O)O` [AMPHOTERICIN B], the MIC80 in assay [1] turned out to be 1 µg/mL (≈ 1.08 µM); in assay [2], 1 µg/mL; in assay [3], 0.25 µg/mL; in assay [4] it was 1 µg/mL; in assay [5] it was 0.25 µg/mL (≈ 0.271 µM); in assay [6] it was 0.25 µg/mL (≈ 0.271 µM). In addition, the MIC80 in assay [7] and in assay [8] was 1 µg/mL each time.

For `Cc1cc(=O)oc2cc(Oc3ccc(NC(=O)C(F)(F)F)cn3)ccc12`, the MIC80 is 32 µg/mL (≈ 87.8 µM) in assay [1]; 16 µg/mL in assay [2]; 32 µg/mL in assay [3]; above 64 µg/mL in assay [4]; 0.25 µg/mL (≈ 0.686 µM) in assay [5]; 0.25 µg/mL (≈ 0.686 µM) in assay [6]. Also, the MIC80 worked out at 16 µg/mL in assay [7] and 1 µg/mL in assay [8].

Consider `Cc1cc(=O)oc2cc(Oc3ccc(N)cn3)ccc12`, for which the MIC80 in assay [1] is above 64 µg/mL; in assay [2] it was above 64 µg/mL; in assay [3], above 64 µg/mL; in assay [4] it was above 64 µg/mL; in assay [5], 16 µg/mL (≈ 59.6 µM); in assay [6], above 64 µg/mL. The MIC80 in assay [7] and in assay [8] was 32 µg/mL throughout.

As for `Cc1cc(=O)oc2cc(Oc3ccc(NC(=O)C(C)(C)C)cn3)ccc12`, the MIC80 in assay [1] was 32 µg/mL (≈ 90.8 µM); in assay [2], 32 µg/mL; in assay [3] it was 16 µg/mL; in assay [4] it was above 64 µg/mL; in assay [5], 4 µg/mL (≈ 11.4 µM); in assay [6], 4 µg/mL (≈ 11.4 µM). Moreover, the MIC80 in assay [7] is 1 µg/mL; in assay [8], 32 µg/mL.

For the molecule `OC(Cn1cncn1)(Cn1cncn1)c1ccc(F)cc1F` [FLUCONAZOLE], the MIC80 was 4 µg/mL (≈ 13.1 µM) in assay [1]; 4 µg/mL in assay [2]; 4 µg/mL in assay [3]; above 64 µg/mL in assay [4]; 0.25 µg/mL (≈ 0.816 µM) in assay [5]; 0.25 µg/mL (≈ 0.816 µM) in assay [6]. The MIC80 stood at 1 µg/mL in assay [7] and 4 µg/mL in assay [8].

For `Cc1cc(=O)oc2cc(Oc3ccc(NC(=O)c4cccnc4)cn3)ccc12`, the MIC80 in assay [1] was 16 µg/mL (≈ 42.9 µM); in assay [2], 32 µg/mL; in assay [3] it was 16 µg/mL; in assay [4] it was above 64 µg/mL; in assay [5], 32 µg/mL (≈ 85.7 µM); in assay [6], 32 µg/mL (≈ 85.7 µM). For the same molecule, the MIC80 in assay [7] and in assay [8] was 32 µg/mL throughout.
